Experimental data published in US8178535B2, “Substituted sulfonamide compounds having bradykinin 1 receptor activity and use thereof as medicaments” (Gruenenthal GmbH, priority 2008, dated 2012).

Assays:
[1] = target: T1, human B1R receptor (hB1R) (Homo sapiens, UniProt P46663); experiment: FLIPR Ca2+ assay (Fluo-4) on CHO K1 cells stably transfected with the human B1R gene; type: cell-based; conditions: CHO-K1; test substance 10 μM; agonist Lys-Des-Arg9-bradykinin 0.5 nM; % inhibition compared to the maximum achievable inhibition
T1 construct: host or cells: CHO K1 cells
T1 sequence (P46663 1-353): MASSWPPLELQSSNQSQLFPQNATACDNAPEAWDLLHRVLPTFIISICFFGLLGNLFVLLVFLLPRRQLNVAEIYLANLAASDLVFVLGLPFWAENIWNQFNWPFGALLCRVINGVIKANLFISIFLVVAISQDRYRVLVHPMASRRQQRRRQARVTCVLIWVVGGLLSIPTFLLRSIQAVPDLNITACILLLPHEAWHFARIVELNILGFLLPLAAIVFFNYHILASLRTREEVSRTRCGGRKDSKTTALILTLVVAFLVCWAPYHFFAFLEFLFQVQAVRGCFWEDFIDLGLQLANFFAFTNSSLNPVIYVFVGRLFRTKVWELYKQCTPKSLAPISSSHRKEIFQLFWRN
In short: (§1)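 CHO K1 cells stably expressing human or rat B1R, Fluo-4 loaded, read by FLIPR (Ex 488/Em 540, peak fluorescence). Compound at 10 μM gives % activation vs agonist. After 10 min, agonist added (human: Lys-Des-Arg9-bradykinin 0.5 nM; rat: Des-Arg9-bradykinin 100 nM); % inhibition relative to maximal achievable inhibition.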

[2] = target: T2, B1R receptor of rats (rB1R) (Rattus norvegicus, UniProt P97583); experiment: FLIPR Ca2+ assay (Fluo-4) on CHO K1 cells stably transfected with the B1R gene of rats; type: cell-based; conditions: CHO-K1; test substance 10 μM; agonist Des-Arg9-bradykinin 100 nM; % inhibition compared to the maximum achievable inhibition
T2 construct: host or cells: CHO K1 cells
T2 sequence (P97583 1-337): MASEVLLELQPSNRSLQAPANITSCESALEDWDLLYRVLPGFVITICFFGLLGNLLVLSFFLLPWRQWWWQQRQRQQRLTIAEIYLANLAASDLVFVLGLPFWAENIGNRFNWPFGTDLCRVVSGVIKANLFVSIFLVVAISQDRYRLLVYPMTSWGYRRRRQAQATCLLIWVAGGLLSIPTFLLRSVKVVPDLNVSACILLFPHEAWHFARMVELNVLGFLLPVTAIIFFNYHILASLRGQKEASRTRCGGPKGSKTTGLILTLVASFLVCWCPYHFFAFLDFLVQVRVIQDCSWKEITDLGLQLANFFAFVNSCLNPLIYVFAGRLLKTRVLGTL
In short: as §1

inhibition at 10 µM [1] [%] | inhibition at 10 µM [2] [%] | SMILES
102 | 103 | CCC1c2cccn2CCN1C(=O)COCC1CCCCN1S(=O)(=O)c1c(C)cc(OC)cc1C (stereo not shown) [(70), 1-(1-ethyl-3,4-dihydropyrrolo[1,2-a]pyrazin-2(1H)-yl)-2-((1-(4-methoxy-2,6-dimethylphenylsulfonyl)piperidin-2-yl)methoxy)ethanone]
103 | 102 | CCCC1c2cccn2CCN1C(=O)COCC1CCCCN1S(=O)(=O)c1c(C)cc(OC)cc1C (stereo not shown) [(71), 2-((1-(4-methoxy-2,6-dimethylphenylsulfonyl)piperidin-2-yl)methoxy)-1-(1-propyl-3,4-dihydropyrrolo[1,2-a]pyrazin-2(1H)-yl)ethanone]
102 | 102 | COc1cc(C)c(S(=O)(=O)N2CCCCC2COCC(=O)N2CCn3cccc3C2C(C)C)c(C)c1 (stereo not shown) [(72), 1-(1-isopropyl-3,4-dihydropyrrolo[1,2-a]pyrazin-2(1H)-yl)-2-((1-(4-methoxy-2,6-dimethylphenylsulfonyl)piperidin-2-yl)methoxy)ethanone]
36 | 102 | COc1cc(C)c(S(=O)(=O)N2CCCCC2COCC(=O)N2CCn3ncnc3C2)c(C)c1 (stereo not shown) [(73), 1-(5,6-dihydro-[1,2,4]triazolo[1,5-a]pyrazin-7(8H)-yl)-2-((1-(4-methoxy-2,6-dimethylphenylsulfonyl)piperidin-2-yl)methoxy)ethanone]
99 | 99 | CCC1c2cccn2CCN1C(=O)COC[C@@H]1CCCCN1S(=O)(=O)c1c(C)cc(OC)cc1C (stereo partly drawn) [(86), 1-(1-ethyl-3,4-dihydropyrrolo[1,2-a]pyrazin-2(1H)-yl)-2-(((S)-1-(4-methoxy-2,6-dimethylphenylsulfonyl)piperidin-2-yl)methoxy)ethanone]
99 | 96 | COc1cc(C)c(S(=O)(=O)N2CCCCC2COCC(=O)N2CCn3c(ccc3-c3cccnc3)C2)c(C)c1 (stereo not shown) [(89), 2-((1-(4-Methoxy-2,6-dimethylphenylsulfonyl)piperidin-2-yl)methoxy)-1-(6-(pyridin-3-yl)-3,4-dihydropyrrolo[1,2-a]pyrazin-2(1H)-yl)ethanone]
91 | 99 | COc1cc(C)c(S(=O)(=O)N2CCCCC2CCCC(=O)N2CCn3c(ccc3-c3cccnc3)C2)c(C)c1 (stereo not shown) [(92), 4-(1-(4-Methoxy-2,6-dimethylphenylsulfonyl)piperidin-2-yl)-1-(6-(pyridin-3-yl)-3,4-dihydropyrrolo[1,2-a]pyrazin-2(1H)-yl)butan-1-one]
99 | 97 | COc1cc(C)c(S(=O)(=O)N2CCCCC2COCC(=O)N2CCn3c(ccc3-c3ccncc3)C2)c(C)c1 (stereo not shown) [(95), 2-((1-(4-Methoxy-2,6-dimethylphenylsulfonyl)piperidin-2-yl)methoxy)-1-(6-(pyridin-4-yl)-3,4-dihydropyrrolo[1,2-a]pyrazin-2(1H)-yl)ethanone]
80 | 103 | O=C(CC1CCCCN1S(=O)(=O)c1cccc(C(F)(F)F)c1)N1CCn2c(Cc3cccnc3)ccc2C1 (stereo not shown) [(97), 1-(6-(Pyridin-3-ylmethyl)-3,4-dihydropyrrolo[1,2-a]pyrazin-2(1H)-yl)-2-(1-(3-(trifluoromethyl)phenylsulfonyl)piperidin-2-yl)ethanone]
72 | 102 | COc1cc(C)c(S(=O)(=O)N2CCCCC2CCC(=O)N2CCn3c(Cc4ccncc4)ccc3C2)c(C)c1 (stereo not shown) [(99), 3-(1-(4-Methoxy-2,6-dimethylphenylsulfonyl)piperidin-2-yl)-1-(6-(pyridin-4-ylmethyl)-3,4-dihydropyrrolo[1,2-a]pyrazin-2(1H)-yl)propan-1-one]
85 | 101 | COc1cc(C)c(S(=O)(=O)N2CCCCC2CCCC(=O)N2CCn3cc(-c4ccncc4)nc3C2)c(C)c1 (stereo not shown) [(100), 4-(1-(4-Methoxy-2,6-dimethylphenylsulfonyl)piperidin-2-yl)-1-(2-(pyridin-4-yl)-5,6-dihydroimidazo[1,2-a]pyrazin-7(8H)-yl)butan-1-one]
86 | 101 | COc1cc(C)c(S(=O)(=O)N2CCCCC2CCC(=O)N2CCn3c(CCc4cccnc4)ccc3C2)c(C)c1 (stereo not shown) [(102), 3-(1-(4-Methoxy-2,6-dimethylphenylsulfonyl)piperidin-2-yl)-1-(6-(2-(pyridin-3-yl)ethyl)-3,4-dihydropyrrolo[1,2-a]pyrazin-2(1H)-yl)propan-1-one]
95 | 100 | COc1cc(C)c(S(=O)(=O)N2CCCCC2CCCC(=O)N2CCn3c(CCc4cccnc4)ccc3C2)c(C)c1 (stereo not shown) [(103), 4-(1-(4-Methoxy-2,6-dimethylphenylsulfonyl)piperidin-2-yl)-1-(6-(2-(pyridin-3-yl)ethyl)-3,4-dihydropyrrolo[1,2-a]pyrazin-2(1H)-yl)butan-1-one]
43 | 49 | O=C(CC1CCCCN1S(=O)(=O)c1cccc(C(F)(F)F)c1)N1CCn2cc(-c3ccncc3)nc2C1 (stereo not shown) [(104), 1-(2-(Pyridin-4-yl)-5,6-dihydroimidazo[1,2-a]pyrazin-7(8H)-yl)-2-(1-(3-(trifluoromethyl)phenylsulfonyl)piperidin-2-yl)ethanone]

Further lines, the molecule ahead of its results:

SMILES | inhibition at 10 µM [1] [%] | inhibition at 10 µM [2] [%]
CCC1c2cccn2CCN1C(=O)CCC1CCCCN1S(=O)(=O)c1c(C)cc(OC)cc1C (stereo not shown) [(85), 1-(1-ethyl-3,4-dihydropyrrolo[1,2-a]pyrazin-2(1H)-yl)-3-(1-(4-methoxy-2,6-dimethylphenylsulfonyl)piperidin-2-yl)propan-1-one] | 95 | 98
COc1cc(C)c(S(=O)(=O)N2CCCCC2COCC(=O)N2CCn3c(Cc4ccncc4)ccc3C2)c(C)c1 (stereo not shown) [(88), 2-((1-(4-Methoxy-2,6-dimethylphenylsulfonyl)piperidin-2-yl)methoxy)-1-(6-(pyridin-4-ylmethyl)-3,4-dihydropyrrolo[1,2-a]pyrazin-2(1H)-yl)ethanone] | 99 | 100
O=C(CC1CCCCN1S(=O)(=O)c1cccc(C(F)(F)F)c1)N1CCn2c(Cc3ccncc3)ccc2C1 (stereo not shown) [(90), 1-(6-(Pyridin-4-ylmethyl)-3,4-dihydropyrrolo[1,2-a]pyrazin-2(1H)-yl)-2-(1-(3-(trifluoromethyl)phenylsulfonyl)piperidin-2-yl)ethanone] | 25 | 47
COc1cc(C)c(S(=O)(=O)N2CCCCC2CCCC(=O)N2CCn3c(Cc4ccncc4)ccc3C2)c(C)c1 (stereo not shown) [(91), 4-(1-(4-Methoxy-2,6-dimethylphenylsulfonyl)piperidin-2-yl)-1-(6-(pyridin-4-ylmethyl)-3,4-dihydropyrrolo[1,2-a]pyrazin-2(1H)-yl)butan-1-one] | 95 | 100
O=C(CC1CCCCN1S(=O)(=O)c1cccc(C(F)(F)F)c1)N1CCn2c(ccc2-c2cccnc2)C1 (stereo not shown) [(93), 1-(6-(Pyridin-3-yl)-3,4-dihydropyrrolo[1,2-a]pyrazin-2(1H)-yl)-2-(1-(3-(trifluoromethyl)phenylsulfonyl)piperidin-2-yl)ethanone] | 18 | 55
COc1cc(C)c(S(=O)(=O)N2CCCCC2CCC(=O)N2CCn3c(ccc3-c3cccnc3)C2)c(C)c1 (stereo not shown) [(94), 3-(1-(4-Methoxy-2,6-dimethylphenylsulfonyl)piperidin-2-yl)-1-(6-(pyridin-3-yl)-3,4-dihydropyrrolo[1,2-a]pyrazin-2(1H)-yl)propan-1-one] | 45 | 99
COc1cc(C)c(S(=O)(=O)N2CCCCC2CCC(=O)N2CCn3c(ccc3-c3ccncc3)C2)c(C)c1 (stereo not shown) [(96), 3-(1-(4-Methoxy-2,6-dimethylphenylsulfonyl)piperidin-2-yl)-1-(6-(pyridin-4-yl)-3,4-dihydropyrrolo[1,2-a]pyrazin-2(1H)-yl)propan-1-one] | 61 | 96
O=C(CC1CCCCN1S(=O)(=O)c1cccc(C(F)(F)F)c1)N1CCn2c(CCc3cccnc3)ccc2C1 (stereo not shown) [(98), 1-(6-(2-(Pyridin-3-yl)ethyl)-3,4-dihydropyrrolo[1,2-a]pyrazin-2(1H)-yl)-2-(1-(3-(trifluoromethyl)phenylsulfonyl)piperidin-2-yl)ethanone] | 90 | 90
COc1cc(C)c(S(=O)(=O)N2CCCCC2COCC(=O)N2CCn3c(CCc4cccnc4)ccc3C2)c(C)c1 (stereo not shown) [(101), 2-((1-(4-Methoxy-2,6-dimethylphenylsulfonyl)piperidin-2-yl)methoxy)-1-(6-(2-(pyridin-3-yl)ethyl)-3,4-dihydropyrrolo[1,2-a]pyrazin-2(1H)-yl)ethanone] | 100 | 98
